These results are taken from US10435399B2, “HDAC6 inhibitory heterocyclic compound” (TAKEDA PHARMACEUTICAL COMPANY LIMITED, priority 2017, dated 2019).

The target of data set [1] is T1, HDAC6 enzyme (Homo sapiens, UniProt Q9UBN7).
T1 construct: transducing full length HDAC6 gene into Sf-9 insect cells; GST; purchased SignalChem; host or cells: Sf-9 insect cells
T1 sequence (Q9UBN7 1-1215): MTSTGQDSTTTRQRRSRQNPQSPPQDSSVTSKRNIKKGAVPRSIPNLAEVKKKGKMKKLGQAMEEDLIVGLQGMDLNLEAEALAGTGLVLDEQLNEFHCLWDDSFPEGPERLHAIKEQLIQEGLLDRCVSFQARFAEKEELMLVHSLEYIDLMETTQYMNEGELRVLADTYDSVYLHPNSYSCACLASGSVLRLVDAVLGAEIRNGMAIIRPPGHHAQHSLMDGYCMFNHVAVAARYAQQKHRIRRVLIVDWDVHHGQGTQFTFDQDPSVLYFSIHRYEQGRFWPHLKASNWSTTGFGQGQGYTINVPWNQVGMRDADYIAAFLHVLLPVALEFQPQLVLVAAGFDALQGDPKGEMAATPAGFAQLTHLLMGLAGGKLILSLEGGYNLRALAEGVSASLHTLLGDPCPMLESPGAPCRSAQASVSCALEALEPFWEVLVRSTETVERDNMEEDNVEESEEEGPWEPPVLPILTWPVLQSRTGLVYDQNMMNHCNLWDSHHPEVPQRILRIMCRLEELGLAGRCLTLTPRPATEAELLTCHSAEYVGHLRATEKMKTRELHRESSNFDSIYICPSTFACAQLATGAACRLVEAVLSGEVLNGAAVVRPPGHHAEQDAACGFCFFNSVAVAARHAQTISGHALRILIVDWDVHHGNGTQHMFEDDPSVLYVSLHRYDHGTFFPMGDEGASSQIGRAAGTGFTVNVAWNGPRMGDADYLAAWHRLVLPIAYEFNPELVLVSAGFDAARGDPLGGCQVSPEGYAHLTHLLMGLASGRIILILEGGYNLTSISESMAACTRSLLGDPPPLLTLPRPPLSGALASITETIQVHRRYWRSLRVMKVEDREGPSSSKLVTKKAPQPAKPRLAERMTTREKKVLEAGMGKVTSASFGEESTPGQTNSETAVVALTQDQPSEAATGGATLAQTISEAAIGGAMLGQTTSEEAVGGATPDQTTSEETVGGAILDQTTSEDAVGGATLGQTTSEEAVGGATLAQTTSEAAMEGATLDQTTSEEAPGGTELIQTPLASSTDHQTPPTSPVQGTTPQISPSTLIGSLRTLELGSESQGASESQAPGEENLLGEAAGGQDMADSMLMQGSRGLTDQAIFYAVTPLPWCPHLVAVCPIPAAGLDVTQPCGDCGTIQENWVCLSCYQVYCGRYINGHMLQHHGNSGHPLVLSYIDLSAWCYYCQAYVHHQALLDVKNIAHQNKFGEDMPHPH
Briefly: HDAC6 enzyme inhibitory activity (HDAC-Glo I/II Assay kit). To be noted: 10 μM; wells without enzyme = 100% inhibition; read-out: HDAC6 inhibitory rate (%) (10 μM). It is filed as biochemical. In outline: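 Sf-9-derived GST-purified full-length HDAC6 + cpd, 60 min RT, 24 mM Tris pH 7.5/0.6 mM glutathione/0.01% Tween-20; add HDAC-Glo substrate-developer, 20 min RT; luminescence. No-enzyme = 100% inhibition.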

In data set [2] the test system is acetylated tubulin in brain (hippocampus). Briefly: Increase in acetylated tubulin in brain (hippocampus ELISA). The format is in vivo, C57BL/6J mouse. To be noted: mouse hippocampus, oral 3 mg/kg, 1 h after administration, vs vehicle. Here is the method:
Increase in Acetylated Tubulin in Brain
A drug was suspended in 0.5% methyl cellulose to prepare a suspension for administration, having a concentration shown in Table 3. The suspension was orally administered into 8 to […] male C57BL/6J mouse, and after the passage of the time shown in Table 3, the brain was taken out, and hippocampus was obtained. The hippocampus was homogenized under RIPA extract (Wako) to which protease inhibitor (Thermo) and phosphatase inhibitor (Thermo) were added, and centrifuged in 15,000 g for 15 min to prepare a protein extract. The acetylated tubulin and total tubulin in the extract were detected by the following ELISA method. Tubulin antibody (Sigma) was immobilized on 96-well plate (Microlite2+, Thermo), and the plate was stored at 4° C. […] The plate was washed, HRP substrate was added thereto, and the luminescence was measured using a plate reader. The acetylated tubulin and total tubulin were quantified from logistics curve based on dilution series using the mouse hippocampus tissue extract, and the acetylated tubulin relative to total tubulin was calculated, and evaluated as an relative tubulin acetylation level. […] After F test for vehicle group and drug group, the significant difference between the two groups was analyzed by Student t-test or Welch test (indicated as * p<0.05, ** p<0.01). […]
A general note: In an ELISA, binding on a coated surface is turned into a signal by an enzyme label.

Data set [3] has as its system TK6 cells. Briefly: γH2AX assay using TK6 cells. The format is cell-based, Human. To be noted: 4 hr treatment, up to 100 μM. The procedure:
γH2AX Assay Using TK6 Cells
Human lymphoblasts-derived TK6 cells were treated with the compounds of Examples 489, 512 or 519 at 0, 10, 30 or 100 μmol/L (final concentration) for 4 hr, and the presence or absence of DNA damage was evaluated by measuring phosphorylation of histone H2AX (γH2AX) as a marker. In addition, cytotoxicity after 24-hr treatment was also evaluated.
Exponentially growing TK6 cells were prepared at the cell density of 4×10^5 cells/mL in a culture medium, and was added to a 96-well plate by 100 μL/well. A test compound solution (2% DMSO) prepared using a culture solution, having twice the concentration on the above-mentioned final concentrations, was added thereto by 100 μL/well. This plate was incubated at 37° C., the cell suspension after 4 hr was sampled, and stained using In Vitro MultiFlow™ DNA Damage Kit (Litron), and H2AX phosphorylation level in each nucleus was measured using a flow cytometer and average value was calculated. The H2AX phosphorylation level in the concurrent vehicle control group was also measured and average value was calculated. The rate of change in the H2AX phosphorylation level in the treatment groups relative to that in the control group was calculated, and Dunnett test (significance level: two-tailed 1%) was performed. In addition, the cell suspension after 24 hr treatment was sampled, and the nucleus number was measured, and variation in the nucleus number in the treatment groups relative to that in the concurrent vehicle control group was used as an indicator of cytotoxicity. […] Therefore, the potential of the compounds for DNA strand breakage was judged to be negative under this test condition.

The test system of data set [4] is tauopathy mouse model. Conditions: cited from earlier work.
The subject of data set [5] is bone-marrow cells. In words: Micronucleus test in rats (bone-marrow cells). The format is in vivo, rats (Crl:CD(SD)). To be noted: rat, in vivo, po. The procedure: Combination Assay of Micronucleus Test and Comet Assay in Rats […] Bone-marrow smear for micronucleus analysis was prepared as follows. Femur was cut at both ends, and washed with fetal bovine serum (FBS) in a centrifuging tube, and the obtained bone-marrow fluid was centrifuged for 5 min at room temperature. The supernatant was removed, and the cell sediment was suspended in the remaining small amount of the supernatant. A part of the suspension was dropped on a glass slide, and a cover glass was placed thereon to give a bone-marrow smear. The smear was dried well, and fixed with methanol for 5 min. The bone-marrow smear of negative control, that of treatment groups as well as the previously prepared bone-marrow smear of positive control group were encoded, and observed by the blind method. An acridine orange solution (40 μg/mL) was dropped (several drops) to the smear just before observation, and a cover glass was placed thereon. […] In addition, as an index of growth inhibitory effect on bone-marrow cell, total of 500 erythrocytes [immature erythrocytes+mature erythrocytes (ME)] per individual were observed, and immature erythrocyte rate (IE %) relative to the total number of erythrocytes was calculated.

In data set [6] the test system is liver and glandular stomach cells. In words: Comet assay in rats (liver and glandular stomach). The format is in vivo, rats (Crl:CD(SD)). Conditions: 3 days, test article = compound of Example 489. The procedure:
Combination Assay of Micronucleus Test and Comet Assay in Rats
The compound of Example 489 at doses of 1000 and 2000 mg/kg was orally administered to 8 to 9-week-old rats (Crl:CD(SD), five/group) once daily for 3 days, and micronucleus induction was evaluated in bone-marrow cells, and DNA damage was evaluated by DNA fragmentation of cell nucleus in the liver and glandular stomach.
Sample for comet assay was obtained from liver and glandular stomach by the following procedures. A part of left lateral lobe of liver was washed well with a cooled mincing buffer solution (Hanks' balanced salt solution containing 20 mmol/L EDTA and 10 vol % DMSO, pH7.5), and minced finely with dissecting scissors. This sample was kept on ice for 15 to 30 seconds, the precipitated large cell mass was removed, and the obtained cell suspension was kept on ice. Glandular stomach was added to a cooled mincing buffer solution, and kept on ice for 15 to 30 min. Then, the surface epithelium was removed by scraping gently twice, the stomach mucosa was washed well with a cooled mincing buffer solution, and the mucosa surface was taken out by scraping carefully four times or five times. This was kept on ice for 15 to 30 seconds, the precipitated large cell mass was removed, and the obtained cell suspension was kept on ice.
The liver and glandular stomach cell suspensions prepared by the above-mentioned procedures were added to 0.5 w/v % low-melting agarose so that the concentration became 10 vol % or less, 40 μL of the suspension was dropped to MAS-coated slide (Matsunami Glass Ind., Ltd.), and fixed to give a slide sample. The slide sample was immersed in a cooled cell lysate [an aqueous solution containing 2.5 mol/L sodium chloride, 100 mmol/L EDTA, 10 mmol/L tris(hydroxymethyl)aminomethane, 10 vol % DMSO and 1 vol % Triton X-100, pH 10.0], and kept overnight under light shielding in a refrigerator (2 to 8° C.).
The slide sample was washed with ultrapure water, set at random into an electrophoresis apparatus filled with an alkali buffer solution (an aqueous solution containing 0.3 mol/L sodium hydroxide and 1 mmol/L EDTA, pH >13) for electrophoresis. After confirming that the sample was completely immersed, the sample was left for 20 min to unwind the strands. Next, electrophorese was performed at a constant voltage of 0.7 to 1 V/cm (current is set about 0.30 A) for 20 min (the electrophoresis apparatus was kept on ice so that the alkali buffer solution for electrophoresis was kept at a constant temperature of 10° C. or below, during from the dissociation of the strands to electrophoresis). After electrophoresis, the slide sample was immersed in a neutralizing solution [0.4 mol/L aqueous tris(hydroxymethyl)aminomethane solution, pH 7.5] for 5 min or longer. Then, the slide sample was immersed in ethanol for 5 min or longer, and air-dried. […] The slide samples for negative control, test compound and positive control groups were encoded, and analyzed by the blind method. In each individual animal, 150 of suitable cells were selected for observation using a biological microscope with fluorescence attachment at 200-fold final magnification, and analyzed by image analysis software (Comet Assay IV, Perceptive Instruments Ltd.). The degree of the DNA damage was evaluated by % tail intensity calculated automatically from image analysis software. The median of the % tail intensity was calculated in each slide sample, and the average of the median was calculated in each individual. […]

Regarding `CC(F)(F)C(=O)N[C@H]1[C@H](N2Cc3ccc(-c4nnc(C(F)F)o4)cc3C2=O)CCCC1(F)F` [Example 512, N-((1S,6R)-6-(6-(5-(difluoromethyl)-1,3,4-oxadiazol-2-yl)-1-oxo-1,3-dihydro-2H-isoindol-2-yl)-2,2-difluorocyclohexyl)-2,2-difluoropropanamide], the inhibition at 10 µM in data set [1] was 99%. Further, in data set [2], the “relative tubulin acetylation level (acetylated tubulin relative to total tubulin)” value was “increase in significant tubulin acetylation level was observed”. Also, in data set [3], the “histone H2AX phosphorylation (γH2AX) resulted from DNA strand breakage” value is on record as “did not induce histone H2AX phosphorylation” and the “potential for DNA strand breakage (judgement)” value is “negative”.
As for `CN1CCc2c(c3ccccc3n2Cc2ccc(C(=O)NO)cc2)C1` [Tubastatin A], in data set [4], the acetylation of tubulin result is reported as “increases acetylation of tubulin” and the therapeutic effectiveness result is reported as “shows therapeutic effectiveness”.
Regarding `CC[C@@]1(O)C(=O)OCc2c1cc1n(c2=O)Cc2cc3cc4c(cc3nc2-1)OCO4` [test article], the “micronucleated immature erythrocytes incidences (MNIE %), mean ± SD” value is 0.10 ± 0.04% in data set [5] (1000 mg/kg/day) and 0.10 ± 0.03% in data set [5] (2000 mg/kg/day). In addition, the “% tail DNA, mean ± SD” value in data set [6] (rat liver, 1000 mg/kg/day oral) was found to be 0.08 ± 0.03%; in data set [6] (rat liver, 2000 mg/kg/day oral), 0.11 ± 0.04%; in data set [6] (rat stomach, 1000 mg/kg/day oral), 0.59 ± 0.22%; in data set [6] (rat stomach, 2000 mg/kg/day oral), 0.48 ± 0.21%.
